# Patent publication US20250303359A1, “COMPOUNDS AND METHODS FOR SAFE MITIGATION OF OCEAN ACIDIFICATION AND CAPTURE OF ATMOSPHERIC CARBON DIOXIDE” (Negative Emissions Materials, Inc., priority 2022, published 2025)
# Where two headings read alike, the source gives them in different places.
# Key:
# [1] = tested on: Tetraselmis suecica cultures; conditions: hydroxide additions equivalent to 1 and 10 mg/L of Mg(OH)2, 6-day period
# Tetraselmis suecica = conditions: for survival after six days of regrowth/culture: 1 hour exposure to 100 g/L Mg(OH)2, 200 g/L NaOH or 100 g/L Ca(OH)2, dilution to 10 mg/L, 6 days; for surviving cells immediately after dilution: 1 hour exposure to 200 g/L NaOH or 100 g/L Ca(OH)2, then dilution to 10 mg/L
# [2] = tested on: Skeletonema pseudocastatum
# Danio rerio = conditions: acute, 96 h, n = 1; Mg(OH)2 paste
# [3] = Sinking rate of Mg(OH)2 in seawater; format: physicochemical
# Tisbe battaglial [4] = conditions: chronic, 7 days, n = 1; Mg(OH)2 mixed as paste into local seawater
# Tisbe battaglial [5] = conditions: acute, 48 h, n = 1; Mg(OH)2 mixed as paste into local seawater
Molecule,ecotoxicity (growth inhibition) [1],survival after six days of regrowth/culture (Tetraselmis suecica),surviving cells immediately after dilution (Tetraselmis suecica),lowest tested concentration showing some toxicity effect on aquatic organisms (aquatic organisms; all standard test organisms) [mg/L],concentration at which no toxicity effect was observed (aquatic organisms; any of the standard test organisms) [ng/mL],dosage showing no negative impact ([2]; standardized ecotoxicity work) [mg/L],dosages showing negative impact ([2]; standardized ecotoxicity work) [mg/L],"Lowest observed effect concentration (LOEC) ([2]; sub-chronic, 72 h, n = 2, Mg(OH)2 mixed as paste into local seawater) [mg/L]",Lowest observed effect concentration (LOEC) (Danio rerio) [mg/L],"sinking rate ([3]; added as powder, visible particles (>100 μm))",particle size distribution ([3]; added to seawater as paste),"sinking rate ([3]; small particles of about 10 micron, based on 4 cm sinking within 10 minutes, LISST instrument) [m/day]",Lowest observed effect concentration (LOEC) (Tisbe battaglial [4]) [mg/L],"pH of solution in seawater (0.05 g/L Mg(OH)2, after 115 minutes mixing (300 rpm), still increasing)","mixing time to full dissolution of particles (concentrations below ~10 mg/L, 60 m deep seawater pH 7.9-8.0, approx. 22 °C, 300 rpm)","maximum pH achieved (seawater, depends on Mg(OH)2 concentration)",Lowest observed effect concentration (LOEC) (Tisbe battaglial [5]) [mg/L],"mortality compared to the control water (Tetraselmis suecica; less than 10 hours of exposure to 100 g/L prior to dilution to 10 mg/L, survival six days after)"
"[Ca+2].[OH-].[OH-] [Ca(OH)2, calcium hydroxide]",not ecotoxic,very few living cells,no surviving cells,,,,,,,,,,,,,,,
sodium hydroxide [NaOH],,no surviving organisms,no surviving cells,,,,,,,,,,,,,,,
"[Mg+2].[OH-].[OH-] [Mg(OH)2, magnesium hydroxide]",not ecotoxic,no mortality,,50,25000,25,≥ 50,50,>100,0.8-6 km/day,5-60 μm,~6,>100,9.04,approximately 3 hours,~9.5,100,no mortality
